According to patent publication US20070123514A1, “Methods of modulating neurotrophin-mediated activity” (PainCeptor Pharma Corporation, priority 2005, published 2007):
Entries after “also recorded” stand apart in the source; their conditions may differ.

Tests used:
Male Sprague-Dawley rats = experiment: Seltzer or Partial Nerve Ligation (PNL) model of neuropathic pain, mechanical allodynia; assay type: in vivo, rat; conditions: 25 mg/kg i.p., 90 min post-treatment
Text: The Partial Nerve Ligation (PNL) model (Seltzer et al., Pain 1990; 43:205) was used to induce chronic neuropathic pain. Male Sprague-Dawley rats were anesthetized with isoflurane, and injury to the sciatic nerve was achieved by tying a tight ligature around ⅓ to ½ of the sciatic nerve just proximal to the nerve's trifurcation in the mid-thigh. Animals develop thermal and mechanical hyperalgesia and allodynia, as well as a long-lasting spontaneous pain or dysesthesia after the nerve injury.
Mechanical allodynia testing: Pre- and post-injury baselines as well as post-treatment values (vehicle or compound-treated animals) for mechanical allodynia were evaluated using Von Frey filaments (Stoelting, Wood Dale, Ill., USA) with varying stiffness. […] The mean and standard error of the mean (SEM) were determined for each paw in each treatment group (ipsilateral/injured paw and contralateral/non-injured paw). […] Effects of compounds were evaluated two weeks after the injury. Compound or vehicle was administered (i.p. or s.c.) and effects on mechanical allodynia were measured at different time points after dosing (e.g., 30, 60 and 90 min.).
Data analysis: Statistical analyses were conducted using Prism™ 4.01 (GraphPad, San Diego, Calif., USA). Mechanical hypersensitivity of the injured paw was determined by comparing contralateral to ipsilateral paw values within the vehicle group at each time point. […]

PC12 (TrkA & p75) = experiment: 125I-NGF binding displacement in PC12 cells; parameters: species or system rat; conditions: PC12 cells expressing TrkA and p75; result in words
Description: The method for acquiring the PC12 data described in Table 1 is described herein in Example 1. Each experiment was done at least once with an n value of 4 for each data point. (n/a=not acquired)
All cells were incubated at 37° C. in 5% CO2. PC12 cells were maintained in RPMI-1640 medium supplemented with 10% fetal bovine serum (FBS). A875 human melanoma cells were maintained in DMEM with 10% FBS. HEK 293 cells were stably transfected with human TrkA plasmid (see below) and maintained in DMEM with 10% FBS and G418 (600 μg/mL) for selection.
NGF binding was evaluated using methods familiar to those who are skilled in the art. Briefly, cells expressing one or both NGF receptors (PC12: TrkA+p75; A875: p75 alone; HEK_trkA: TrkA alone) were harvested by replacing the medium with calcium-magnesium free balanced salt (Grey's) solution and incubating at 37° C. for 15 min. For NGF binding, cells were resuspended at a concentration of 2×10^6 cells/mL in HEPES-Krebs-Ringer (HKR) buffer (10 mM HEPES; 125 mM NaCl; 4.8 mM KCl; 1.3 mM CaCl2; 1.2 mM MgSO4; 1.2 mM KH2PO4; 1 mg/ml BSA; 1 mg/ml glucose; pH 7.4) and exposed to ^125I-NGF (˜0.1 nM) in the presence or absence of varying concentrations of the compound. Non-specific binding was determined for reference by incubating ^125I-NGF with an excess of non-radioactive NGF in the abence of compound. Following a two-hour incubation period at 4° C., ^125I-NGF bound to the cells was quantified in a gamma radiation counter following separation from unbound NGF by filtration or centrifugation through glycerol (10% in HKR). Inhibition of binding was calculated as a percent of the specific binding (calculated as the differential between ^125I-NGF binding in the absence and presence of an excess of non-radioactive NGF without compound). Dose-response inhibition curves were typically generated with seven concentrations of a given compound, with three replicates for each concentration. For most compounds, multiple dose-response curves were generated.
The IC50 data shown in Table 1 were acquired using the procedure described herein using PC12 cells.

O=C(O)c1ccc(Cl)c(N2C(=O)c3cccc4cc([N+](=O)[O-])cc(c34)C2=O)c1 [Compound 5, 4-Chloro-3-(5-nitro-1,3-dioxo-1H,3H-benzo[de]isoquinolin-2-yl)-benzoic acid]
antinociceptive effect / reversal of mechanical allodynia in partial nerve ligation model (Male Sprague-Dawley rats; result in words, 25 mg/kg): significant reversal of the mechanical allodynia; also recorded: antinociceptive effects
mechanical allodynia, Von Frey response threshold of injured paw (Male Sprague-Dawley rats; vehicle 2.17±0.19 g, n=7): 5.14 ± 0.36 g
blocking of NGF binding (dose-response curve) (PC12 (TrkA & p75)): effectively block NGF binding
